For six compounds, EC50 results are on record in patent US20240247080A1, “GLP1/GIP/NPY2 RECEPTOR TRIPLE AGONISTS” (Boehringer Ingelheim International GmbH, priority 2022, published 2024).

Format in all cases: cell-based
Holding throughout (conditions): CreLuc reporter gene assay

Experiment [1] deals with T1, hNPY2R (Homo sapiens, UniProt P49146).
T1 construct: expressed in transfected cells; host or cells: HEK-293 cells carrying a CRE-luciferase reporter gene
T1 sequence (P49146 1-381): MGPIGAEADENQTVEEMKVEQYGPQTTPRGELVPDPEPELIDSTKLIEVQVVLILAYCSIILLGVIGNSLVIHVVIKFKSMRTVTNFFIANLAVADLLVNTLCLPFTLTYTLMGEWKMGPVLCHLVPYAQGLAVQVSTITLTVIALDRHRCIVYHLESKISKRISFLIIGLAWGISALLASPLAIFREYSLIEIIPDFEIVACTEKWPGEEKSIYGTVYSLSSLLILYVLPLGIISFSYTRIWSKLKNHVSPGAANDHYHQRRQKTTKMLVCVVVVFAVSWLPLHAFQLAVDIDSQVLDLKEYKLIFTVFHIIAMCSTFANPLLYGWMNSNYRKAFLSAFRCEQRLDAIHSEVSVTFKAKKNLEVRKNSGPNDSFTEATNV
Put plainly: hNPY2R CreLuc reporter gene assay in 0.5% and 100% plasma. A digest of the protocol:
(§1)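 HEK cells (GLP-1R, NPY2R) or CHO cells (GIPR) carrying a CRE-luciferase reporter, incubated 4 h at 37 °C with peptides in HBSS/20 mM HEPES pH 7.4 plus 0.5% human plasma, or in 100% plasma. Luminescence read; EC50 from 8-point variable-slope sigmoid fits.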

Experiment [2] concerns the target T2, hGLP1R (Homo sapiens, UniProt P43220).
T2 construct: expressed in transfected cells; host or cells: HEK-293 cells carrying a CRE-luciferase reporter gene
Put plainly: hGLP1R CreLuc reporter gene assay in 0.5% and 100% plasma. A digest of the protocol:
as §1

The target in experiment [3] is T3, hGIPR (Homo sapiens, UniProt P48546).
T3 construct: expressed in transfected cells; host or cells: CHO cells carrying a CRE-luciferase reporter gene
T3 sequence (P48546 22-466): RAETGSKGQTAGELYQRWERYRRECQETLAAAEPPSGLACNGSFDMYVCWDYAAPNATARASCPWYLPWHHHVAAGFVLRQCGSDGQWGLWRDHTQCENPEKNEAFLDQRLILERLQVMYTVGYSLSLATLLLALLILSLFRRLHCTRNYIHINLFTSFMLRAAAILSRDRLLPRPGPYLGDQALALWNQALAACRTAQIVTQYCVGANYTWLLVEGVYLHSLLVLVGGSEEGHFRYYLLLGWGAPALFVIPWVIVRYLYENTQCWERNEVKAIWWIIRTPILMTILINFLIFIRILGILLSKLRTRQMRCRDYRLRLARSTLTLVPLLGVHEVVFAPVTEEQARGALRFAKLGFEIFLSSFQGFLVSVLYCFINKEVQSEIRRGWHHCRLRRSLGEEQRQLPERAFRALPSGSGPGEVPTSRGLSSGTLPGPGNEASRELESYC
Put plainly: hGIPR CreLuc reporter gene assay in 0.5% and 100% plasma. A digest of the protocol:
as §1

The mark [4] stands for this setting: 0.5% human plasma, read-out: hNPY2R 0.5% hP.
Setting [5] is: 0.5% human plasma, read-out: hGLP1R 0.5% hP.
Setting [6] is: 0.5% human plasma, read-out: hGIPR 0.5% hP.
The mark [7] stands for this setting: 100% human plasma, read-out: hGIPR 100% hP.
[8] abbreviates: 100% human plasma, read-out: hGLP1R 100% hP.
Where [9] appears, read: 100% human plasma, read-out: hNPY2R 100% hP.

Read-outs that look alike come from different tables or passages of the source. Starred links: 1 amine or outer side, 2 acyl side, 3 side chain; linkers in the order of their positions; H or OH if unused. Non-standard residues stand in square brackets, D forms with d. Groups on a side chain read outwards from the residue. *: point of attachment. C20 diacid = O=C(O)CCCCCCCCCCCCCCCCCCC(=O)*; γGlu = O=C(O)[C@H](CCC(=O)[*:2])N[*:1]; εLys = N[C@@H](CCCCN[*:1])C(=O)[*:2]; AEEA = NCCOCCOCC(=O)O; Aib = CC(C)(N)C(=O)O

T2 sequence (P43220 24-463): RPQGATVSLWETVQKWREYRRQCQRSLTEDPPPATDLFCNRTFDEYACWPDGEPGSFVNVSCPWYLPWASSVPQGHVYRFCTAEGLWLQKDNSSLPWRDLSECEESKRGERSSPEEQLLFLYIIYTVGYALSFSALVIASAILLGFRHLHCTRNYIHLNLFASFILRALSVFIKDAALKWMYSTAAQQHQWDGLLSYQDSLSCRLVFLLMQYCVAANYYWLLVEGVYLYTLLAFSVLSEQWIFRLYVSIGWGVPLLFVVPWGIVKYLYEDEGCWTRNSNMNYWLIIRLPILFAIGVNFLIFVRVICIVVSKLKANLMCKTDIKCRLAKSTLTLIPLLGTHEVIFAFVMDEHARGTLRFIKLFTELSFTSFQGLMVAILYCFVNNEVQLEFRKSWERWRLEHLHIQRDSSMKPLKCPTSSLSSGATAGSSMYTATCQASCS

Take `CC[C@H](C)[C@H](NC(=O)[C@H](CO)NC(=O)[C@H](Cc1ccc(O)cc1)NC(=O)[C@H](CC(=O)O)NC(=O)[C@H](CO)NC(=O)[C@@H](NC(=O)[C@H](Cc1ccccc1)NC(=O)[C@@H](NC(=O)CNC(=O)[C@H](CCC(=O)O)NC(=O)C(C)(C)NC(=O)[C@@H](N)Cc1ccc(O)cc1)[C@@H](C)O)[C@@H](C)O)C(=O)NC(C)(C)C(=O)N[C@@H](CC(C)C)C(=O)N[C@@H](CCC(=O)O)C(=O)N[C@@H](CCCCN)C(=O)N[C@@H](CCC(N)=O)C(=O)N[C@@H](C)C(=O)N[C@@H](CCC(N)=O)C(=O)NC(C)(C)C(=O)N[C@@H](C)C(=O)N[C@@H](Cc1ccccc1)C(=O)N[C@H](C(=O)N[C@@H](CCC(=O)O)C(=O)N[C@@H](Cc1c[nH]c2ccccc12)C(=O)N[C@@H](CC(C)C)C(=O)N[C@@H](CC(C)C)C(=O)N[C@@H](CCCCNC(=O)[C@@H](N)CCCCNC(=O)CC[C@H](NC(=O)CC[C@H](NC(=O)CC[C@H](NC(=O)CC[C@H](NC(=O)CC[C@H](NC(=O)CC[C@H](NC(=O)CCCCCCCCCCCCCCCCCCC(=O)O)C(=O)O)C(=O)O)C(=O)O)C(=O)O)C(=O)O)C(=O)O)C(=O)NCC(=O)NCC(=O)N1CCC[C@H]1C(=O)N[C@@H](CO)C(=O)N[C@@H](CO)C(=O)NCC(=O)N[C@@H](C)C(=O)N[C@@H](CO)C(=O)N[C@@H](CC(C)C)C(=O)N[C@@H](CCCNC(=N)N)C(=O)N[C@@H](Cc1c[nH]cn1)C(=O)N[C@@H](Cc1ccc(O)cc1)C(=O)N[C@@H](Cc1ccc(O)cc1)C(=O)N[C@@H](CC(N)=O)C(=O)N[C@@H](Cc1c[nH]c2ccccc12)C(=O)N[C@@H](CC(C)C)C(=O)N[C@H](C(=O)N[C@@H](CCCNC(=N)N)C(=O)N[C@@H](CCC(N)=O)C(=O)N[C@@H](CCCNC(=N)N)C(=O)N[C@@H](Cc1ccc(O)cc1)C(N)=O)[C@@H](C)O)C(C)C` [Compound 109, Y-Aib-E-G-T-F-T-S-D-Y-S-I-Aib-L-E-K-Q-A-Q-Aib-A-F-V-E-W-L-L-K(1,3)-GGPSSGASLRHYYNWLTRQRY-NH2.C20DA-gGlu-gGlu-glu-gGlu-gGlu-Glu-eLys(1,2)]: the EC50 in experiment [1] (setting [4]) was determined as 10.8 nM; in experiment [2] (setting [5]), 0.28 nM; in experiment [3] (setting [6]) it was 0.09 nM; in experiment [3] (setting [7]) it was 0.64 nM.
In the case of `CC[C@H](C)[C@H](NC(=O)[C@H](CC(C)C)NC(=O)[C@H](Cc1c[nH]c2ccccc12)NC(=O)[C@H](CCC(N)=O)NC(=O)[C@@H](NC(=O)[C@H](Cc1ccccc1)NC(=O)[C@H](C)NC(=O)C(C)(C)NC(=O)[C@H](CCC(N)=O)NC(=O)[C@H](C)NC(=O)[C@H](CCC(N)=O)NC(=O)[C@H](CCCCN)NC(=O)[C@H](CCC(=O)O)NC(=O)[C@H](CC(C)C)NC(=O)C(C)(C)NC(=O)[C@@H](NC(=O)[C@H](CO)NC(=O)[C@H](Cc1ccc(O)cc1)NC(=O)[C@H](CC(=O)O)NC(=O)[C@H](CO)NC(=O)[C@@H](NC(=O)[C@H](Cc1ccccc1)NC(=O)[C@@H](NC(=O)CNC(=O)[C@H](CCC(=O)O)NC(=O)C(C)(C)NC(=O)[C@@H](N)Cc1ccc(O)cc1)[C@@H](C)O)[C@@H](C)O)[C@@H](C)CC)C(C)C)C(=O)N[C@@H](CCCCNC(=O)[C@@H](N)CCCCNC(=O)[C@H](CCC(=O)O)NC(=O)[C@H](CCC(=O)O)NC(=O)[C@H](CCC(=O)O)NC(=O)[C@H](CCC(=O)O)NC(=O)[C@H](CCC(=O)O)NC(=O)[C@H](CCC(=O)O)NC(=O)CCCCCCCCCCCCCCCCC(=O)O)C(=O)NCC(=O)NCC(=O)N1CCC[C@H]1C(=O)N[C@@H](CO)C(=O)N[C@@H](CCC(=O)O)C(=O)NCC(=O)N[C@@H](C)C(=O)N[C@@H](CO)C(=O)N[C@@H](CC(C)C)C(=O)N[C@@H](CCCNC(=N)N)C(=O)N[C@@H](Cc1c[nH]cn1)C(=O)N[C@@H](Cc1ccc(O)cc1)C(=O)N[C@@H](Cc1ccc(O)cc1)C(=O)N[C@@H](CC(N)=O)C(=O)N[C@@H](Cc1c[nH]c2ccccc12)C(=O)N[C@@H](CC(C)C)C(=O)N[C@H](C(=O)N[C@@H](CCCNC(=N)N)C(=O)N[C@@H](CCC(N)=O)C(=O)N[C@@H](CCCNC(=N)N)C(=O)N[C@@H](Cc1ccc(O)cc1)C(N)=O)[C@@H](C)O` [Compound 249, Y-Aib-E-G-T-F-T-S-D-Y-S-I-Aib-L-E-K-Q-A-Q-Aib-A-F-V-Q-W-L-I-K(1,3)-GGPSEGASLRHYYNWLTRQRY-NH2.C18DA-E-E-E-E-E-E-eLys(1,2)], the EC50 worked out at 17.8 nM in experiment [1] (setting [4]); 0.13 nM in experiment [2] (setting [5]); 1.78 nM in experiment [2] (setting [8]); 0.19 nM in experiment [3] (setting [6]); 1.25 nM in experiment [3] (setting [7]).
For the compound `CC[C@H](C)[C@H](NC(=O)[C@H](CC(C)C)NC(=O)[C@H](Cc1c[nH]c2ccccc12)NC(=O)[C@H](CCC(=O)O)NC(=O)[C@@H](NC(=O)[C@H](Cc1ccccc1)NC(=O)[C@H](C)NC(=O)C(C)(C)NC(=O)[C@H](CCC(N)=O)NC(=O)[C@H](C)NC(=O)[C@H](CCC(N)=O)NC(=O)[C@H](CCCCN)NC(=O)[C@H](CCC(=O)O)NC(=O)[C@H](CC(C)C)NC(=O)C(C)(C)NC(=O)[C@@H](NC(=O)[C@H](CO)NC(=O)[C@H](Cc1ccc(O)cc1)NC(=O)[C@H](CC(=O)O)NC(=O)[C@H](CO)NC(=O)[C@@H](NC(=O)[C@H](Cc1ccccc1)NC(=O)[C@@H](NC(=O)CNC(=O)[C@H](CCC(=O)O)NC(=O)C(C)(C)NC(=O)[C@@H](N)Cc1ccc(O)cc1)[C@@H](C)O)[C@@H](C)O)[C@@H](C)CC)C(C)C)C(=O)N[C@@H](CCCCNC(=O)[C@@H](N)CCCCNC(=O)CC[C@H](NC(=O)CC[C@H](NC(=O)CC[C@H](NC(=O)CC[C@H](NC(=O)CC[C@H](NC(=O)CC[C@H](NC(=O)CCCCCCCCCCCCCCCCCCC(=O)O)C(=O)O)C(=O)O)C(=O)O)C(=O)O)C(=O)O)C(=O)O)C(=O)NCC(=O)NCC(=O)N1CCC[C@H]1C(=O)N[C@@H](CO)C(=O)N[C@@H](CO)C(=O)NCC(=O)N[C@@H](CCC(N)=O)C(=O)N[C@@H](CO)C(=O)N[C@@H](CC(C)C)C(=O)N[C@@H](CCCNC(=N)N)C(=O)N[C@@H](Cc1c[nH]cn1)C(=O)N[C@@H](Cc1ccc(O)cc1)C(=O)N[C@@H](Cc1ccc(O)cc1)C(=O)N[C@@H](CC(N)=O)C(=O)N[C@@H](Cc1c[nH]c2ccccc12)C(=O)N[C@@H](CC(C)C)C(=O)N[C@H](C(=O)N[C@@H](CCCNC(=N)N)C(=O)N[C@@H](CCC(N)=O)C(=O)N[C@@H](CCCNC(=N)N)C(=O)N[C@@H](Cc1ccc(O)cc1)C(N)=O)[C@@H](C)O` [Compound 84, Y-Aib-E-G-T-F-T-S-D-Y-S-I-Aib-L-E-K-Q-A-Q-Aib-A-F-V-E-W-L-I-K(1,3)-GGPSSGQSLRHYYNWLTRQRY-NH2.C20DA-gGlu-gGlu-gGlu-gGlu-gGlu-gGlu-eLys(1,2)], the EC50 is 35.2 nM in experiment [1] (setting [9]), 0.13 nM in experiment [2] (setting [5]), 0.23 nM in experiment [3] (setting [6]) and 1.43 nM in experiment [3] (setting [7]).
Turning to “H-Y[Aib]EGTFTSDYSI[Aib]LEKQAQ[Aib]AFVEWLIK([εLys-γGlu-γGlu-γGlu-γGlu-γGlu-γGlu-C20 diacid])GGPSSGASLRHY[Aib]NWLTRQRY-NH2 [Compound 184, Y-Aib-E-G-T-F-T-S-D-Y-S-I-Aib-L-E-K-Q-A-Q-Aib-A-F-V-E-W-L-I-K(1,3)-G-G-P-S-S-G-A-S-L-R-H-Y-Aib-N-W-L-T-R-Q-R-Y-NH2.C20DA-gGlu-gGlu-gGlu-gGlu-gGlu-gGlu-eLys(1,2)]”, the EC50 in experiment [1] (setting [4]) amounted to 46 nM; in experiment [2] (setting [5]) it was 0.18 nM; in experiment [3] (setting [6]), 0.28 nM; in experiment [3] (setting [7]), 1.37 nM.
Take “H-Y[Aib]EGTFTSDYSI[Aib]LEKQAQ[Aib]AFVQWLIK([AEEA-AEEA-Glu-Glu-Glu-Glu-C20 diacid])GGPSEGASLRHYYNWLTRQRY-NH2 [Compound 239, Y-Aib-E-G-T-F-T-S-D-Y-S-I-Aib-L-E-K-Q-A-Q-Aib-A-F-V-Q-W-L-I-K(1,3)-GGPSEGASLRHYYNWLTRQRY-NH2.C20DA-E-E-E-E-OEG-OEG(1,2)]”: the EC50 in experiment [1] (setting [4]) came to 13.6 nM; in experiment [2] (setting [5]) it was 0.11 nM; in experiment [2] (setting [8]), 4.76 nM; in experiment [3] (setting [6]), 0.35 nM.
Turning to “H-Y[Aib]EGTFTSDYSI[Aib]LEKQAQ[Aib]AFVEWLIK([εLys-γGlu-γGlu-γGlu-γGlu-γGlu-γGlu-C20 diacid])GGPSYYVSLRHYYNWLTRQRY-NH2 [Compound 80, Y-Aib-E-G-T-F-T-S-D-Y-S-I-Aib-L-E-K-Q-A-Q-Aib-A-F-V-E-W-L-I-K(1,3)-GGPSYYVSLRHYYNWLTRQRY-NH2.C20DA-gGlu-gGlu-gGlu-gGlu-gGlu-gGlu-eLys(1,2)]”, the EC50 in experiment [1] (setting [4]) is 12.8 nM; in experiment [1] (setting [9]), 54.8 nM; in experiment [2] (setting [5]), 1.6 nM; in experiment [3] (setting [6]), 0.79 nM.
